Patent US8975241B2, “Composition for treating and preventing obesity including high water-soluble 2-hydroxypropyl-betacyclodextrin as effective component” (Song Ho Biomed Co., Ltd., priority 2009, dated 2015)

Columns and labels:
Assay type in all cases: in vivo
[1] = tested on: high fat diet-mouse; experiment: Change in body weight by oral administration in high fat diet-mouse
Experimental: (§1) Male C57BL/6J mice (Five age of the week, KRIBB, Korea) were accommodated for 1 week. And then, the weights of the animals were equally divided into 5 animals as one group. While a high fat diet (60% fat kcal) was provided, sterilized distilled water and HPBCDs with 10, 20, and 40% (W/V) were orally administered at three times (Morning, Afternoon, Evening) a day for 5 days in 0.2 ml per 20 g body weight of a mouse at the same time. A change in body weight was measured to all of the animals during the test at one time per day; the fixed amount of feeds was provided at the day of measuring body weight, and then an average amount of intake per an animal (g/mouse/day) was calculated by measuring a residual amount of feeds at the next day.
A body weight was measured by using the same conditions as the above <Example 3>, except that BCDs with 10 and 20% (W/V) concentrations were used instead of HPBCDs with 10, 20, and 40% (W/V) concentrations.
A change in body weight was measured during the test using α-CD instead of HPBCD in the same method as the above <Example 3>.

[2] = tested on: high fat diet-mouse; experiment: Change of liver weight and body fat by oral administration in high fat diet-mouse; settings: oral for 5 days
Experimental: […] The mice were killed by using CO2 gas; their abdomens were cut; their subcutaneous fats, genital fats, intra-abdominal fats, and livers were isolated; then their weights were measured using a chemical balance; average weight of five animals was calculated.

[3] = tested on: high fat diet-mouse; experiment: Amount of feed intake by oral administration in high fat diet-mouse
Experimental: as §1

[4] = tested on: normal mouse (ICR); experiment: Oral maltose tolerance test; settings: for Rate of Suppression (%): vs control group
Experimental: An oral maltose tolerance test system is to predict whether or not a sample has an effect on suppressing a sharp increase of blood sugar induced by intaking maltose after an oral-administration of the sample to a mouse.
A normal mouse [ICR, 6W, Coretech Inc., Korea] was accommodated for 1 week, and then approximately 18˜20 g female with 7 age of the week mouse was used. 6 mice were assigned for one experimental group and starved for 16 hours to use. HPBCD was dissolved in sterilized distilled water to be 20% (W/V) concentration, and then oral-administered in 0.2 mL per 20 g body weight of a mouse. And then, the maltose dissolved in physiological saline was oral-administered to mice in a liquid amount of 10 ml/kg to inject 2 g/kg after 15, 30, 60, and 90 minutes, respectively. The levels of blood sugars were measured just before administering maltose (0 hour), and at 15, 60, and 120 minutes after administering maltose. Blood for measuring blood sugar was collected from orbital venous of the mouse using a capillary tube. The blood sugar in the collected blood was measured using a measuring instrument, […] ALPHA (Boehringer mannheim Co.). The same amount of sterilized distilled water was administered for the control group.

[5] = 10% (w/v) oral three times a day, 1 Day
[6] = 10% (w/v) oral three times a day, 2 Day
[7] = 10% (w/v) oral three times a day, 3 Day
[8] = 10% (w/v) oral three times a day, 4 Day
[9] = 10% (w/v) oral three times a day, 5 Day
[10] = 20% (w/v) oral three times a day, 1 Day
[11] = 20% (w/v) oral three times a day, 2 Day
[12] = 20% (w/v) oral three times a day, 3 Day
[13] = 20% (w/v) oral three times a day, 4 Day
[14] = 20% (w/v) oral three times a day, 5 Day
[15] = 40% (w/v) oral three times a day, 1 Day
[16] = 40% (w/v) oral three times a day, 2 Day
[17] = 40% (w/v) oral three times a day, 3 Day
[18] = 40% (w/v) oral three times a day, 4 Day
[19] = 40% (w/v) oral three times a day, 5 Day
[20] = 20% (W/V) oral (−)15 min. before maltose 2 g/kg
[21] = 20% (W/V) oral (−)30 min. before maltose 2 g/kg
[22] = 20% (W/V) oral (−)60 min. before maltose 2 g/kg
[23] = 20% (W/V) oral (−)90 min. before maltose 2 g/kg

## 2-hydroxypropyl-β-cyclodextrin [HPBCD]
[1]; 10% (w/v) oral three times a day, 0 Day
  Body weight as percent of initial body weight: 100.0 ± 0.0%
[1]; [5]
  Body weight as percent of initial body weight: 99.3 ± 0.9 %
[1]; [6]
  Body weight as percent of initial body weight: 98.5 ± 1.3 %
[1]; [7]
  Body weight as percent of initial body weight: 98.4 ± 1.2 %
[1]; [8]
  Body weight as percent of initial body weight: 98.3 ± 1.2 %
[1]; [9]
  Body weight as percent of initial body weight: 98.7 ± 2.0 %
[1]; 10, 20, 40% (W/V) oral
  body weight as compared with the control group: decreased depending on the concentrations
  body weight as compared with the initial body weight: significantly decreased
[1]; 20% (w/v) oral three times a day, 0 Day
  Body weight as percent of initial body weight: 100.0 ± 0.0%
[1]; [10]
  Body weight as percent of initial body weight: 97.1 ± 1.0 %
[1]; [11]
  Body weight as percent of initial body weight: 95.6 ± 1.1 %
[1]; [12]
  Body weight as percent of initial body weight: 95.8 ± 1.3 %
[1]; [13]
  Body weight as percent of initial body weight: 96.6 ± 1.0 %
[1]; [14]
  Body weight as percent of initial body weight: 95.7 ± 1.5 %
[1]; 40% (w/v) oral three times a day, 0 Day
  Body weight as percent of initial body weight: 100.0 ± 0.0%
[1]; [15]
  Body weight as percent of initial body weight: 95.0 ± 2.2 %
[1]; [16]
  Body weight as percent of initial body weight: 93.1 ± 3.4 %
[1]; [17]
  Body weight as percent of initial body weight: 93.5 ± 3.4 %
[1]; [18]
  Body weight as percent of initial body weight: 94.3 ± 2.9 %
[1]; [19]
  Body weight as percent of initial body weight: 94.1 ± 1.9 %
[2]; 10% (w/v)
  Total Amount of Fat: 1233.9 ± 244.8 mg
  Weight of Genital Fat: 473.3 ± 99.6 mg
  Weight of Intra-abdominal Fat: 113.0 ± 31.5 mg
  Weight of Liver: 1011.1 ± 33.5 mg
  Weight of Subcutaneous Fat: 647.6 ± 119.5 mg
[2]; 15% (w/v)
  Total Amount of Fat: 795.8 ± 90.1 mg
  Weight of Genital Fat: 319.6 ± 46.5 mg
  Weight of Liver: 960.2 ± 44.6 mg
  Weight of Subcutaneous Fat: 411.3 ± 43.9 mg
[2]; 20% (w/v)
  Total Amount of Fat: 666.9 ± 75.3 mg
  Weight of Genital Fat: 240.8 ± 45.5 mg
  Weight of Intra-abdominal Fat: 43.9 ± 9.3 mg
  Weight of Liver: 990.1 ± 35.1 mg
  Weight of Subcutaneous Fat: 382.1 ± 38.3 mg
[2]
  weight of liver vs control group: decreased depending on the concentrations
[3]; [5]
  Amount of Feed Intake (g/mouse/day): 3.0 ± 0.2 g/mouse/day
[3]; [6]
  Amount of Feed Intake (g/mouse/day): 2.8 ± 0.3 g/mouse/day
[3]; [7]
  Amount of Feed Intake (g/mouse/day): 2.9 ± 0.5 g/mouse/day
[3]; [8]
  Amount of Feed Intake (g/mouse/day): 2.7 ± 0.5 g/mouse/day
[3]; [9]
  Amount of Feed Intake (g/mouse/day): 2.7 ± 0.5 g/mouse/day
[3]; 10, 20, 40% (W/V) oral
  amount of dietary intake: temporary effect on decreasing an amount of dietary intake
[3]; [10]
  Amount of Feed Intake (g/mouse/day): 2.4 ± 0.4 g/mouse/day
[3]; [11]
  Amount of Feed Intake (g/mouse/day): 2.1 ± 0.4 g/mouse/day
[3]; [12]
  Amount of Feed Intake (g/mouse/day): 2.5 ± 0.4 g/mouse/day
[3]; [13]
  Amount of Feed Intake (g/mouse/day): 2.6 ± 0.2 g/mouse/day
[3]; [14]
  Amount of Feed Intake (g/mouse/day): 2.1 ± 0.4 g/mouse/day
[3]; [15]
  Amount of Feed Intake (g/mouse/day): 1.8 ± 0.5 g/mouse/day
[3]; [16]
  Amount of Feed Intake (g/mouse/day): 2.0 ± 0.5 g/mouse/day
[3]; [17]
  Amount of Feed Intake (g/mouse/day): 2.7 ± 0.6 g/mouse/day
[3]; [18]
  Amount of Feed Intake (g/mouse/day): 2.5 ± 0.3 g/mouse/day
[3]; [19]
  Amount of Feed Intake (g/mouse/day): 2.6 ± 0.3 g/mouse/day
[4]; [20]
  Increasing Amount of Blood Sugar (15 min.~0 hour): 189.7 mg/dL
  Level of Blood Sugar Before and After Administration of Maltose (mg/dl), 0 hour: 83.2 mg/dL
  Level of Blood Sugar Before and After Administration of Maltose (mg/dl), 15 min.: 272.8 mg/dL
  Rate of Suppression (%): 38.6%
[4]; [21]
  Increasing Amount of Blood Sugar (15 min.~0 hour): 164.8 mg/dL
  Level of Blood Sugar Before and After Administration of Maltose (mg/dl), 0 hour: 87.2 mg/dL
  Level of Blood Sugar Before and After Administration of Maltose (mg/dl), 15 min.: 252.0 mg/dL
  Rate of Suppression (%): 46.7%
[4]; [22]
  Increasing Amount of Blood Sugar (15 min.~0 hour): 171.3 mg/dL
  Level of Blood Sugar Before and After Administration of Maltose (mg/dl), 0 hour: 86.2 mg/dL
  Level of Blood Sugar Before and After Administration of Maltose (mg/dl), 15 min.: 257.5 mg/dL
  Rate of Suppression (%): 44.6%
[4]; [23]
  Increasing Amount of Blood Sugar (15 min.~0 hour): 186.2 mg/dL
  Level of Blood Sugar Before and After Administration of Maltose (mg/dl), 0 hour: 77.7 mg/dL
  Level of Blood Sugar Before and After Administration of Maltose (mg/dl), 15 min.: 264.2 mg/dL
  Rate of Suppression (%): 39.6%
[4]; oral, all pre-treatment times
  blood sugar caused by intaking maltose suppressed as compared with the control group: 38˜47%
